Laboratory results from article PMC11357990, “A first-in-class selective inhibitor of EGFR and PI3K offers a single-molecule approach to targeting adaptive resistance” (Nature Cancer, 2024).
pIC50: −log10 of the molar value.

Experiments:
PI3Kα = PI3Kα (Homo sapiens, UniProt P42336); assay: biochemical; set-up: gene PIK3CA; Km ATP; Purified kinase inhibition, Z'-LYTE (HER, mTOR, DNA-PK) or Adapta (PI3K), ATP at Km apparent
Experimental: (§1) IC50 values were determined at a concentration of ATP corresponding to the Km apparent for that kinase.

PI3Kγ [1] = target: T1, PI3Kγ (Homo sapiens, UniProt P48736); assay: biochemical; set-up: gene PIK3CG; Km ATP; Purified kinase inhibition, Z'-LYTE (HER, mTOR, DNA-PK) or Adapta (PI3K), ATP at Km apparent
Experimental: as §1

mTOR = target: T2, mTOR (Homo sapiens, UniProt P42345); assay: biochemical; set-up: Purified kinase inhibition, Z'-LYTE (HER, mTOR, DNA-PK) or Adapta (PI3K), ATP at Km apparent
T2 construct: Km ATP
Experimental: as §1

HER4 = target: T3, HER4 (Homo sapiens, UniProt Q15303); assay: biochemical; set-up: Purified kinase inhibition, Z'-LYTE (HER, mTOR, DNA-PK) or Adapta (PI3K), ATP at Km apparent
T3 construct: gene ERBB4; Km ATP
Experimental: as §1

HER2 = target: T4, HER2 (Homo sapiens, UniProt P04626); assay: biochemical; set-up: Purified kinase inhibition, Z'-LYTE (HER, mTOR, DNA-PK) or Adapta (PI3K), ATP at Km apparent
T4 construct: gene ERBB2; Km ATP
Experimental: as §1

PI3Kβ = target: T5, PI3Kβ (Homo sapiens, UniProt P42338); assay: biochemical; set-up: Purified kinase inhibition, Z'-LYTE (HER, mTOR, DNA-PK) or Adapta (PI3K), ATP at Km apparent
T5 construct: gene PIK3CB; Km ATP
Experimental: as §1

PI3Kδ = target: T6, PI3Kδ (Homo sapiens, UniProt O00329); assay: biochemical; set-up: Purified kinase inhibition, Z'-LYTE (HER, mTOR, DNA-PK) or Adapta (PI3K), ATP at Km apparent
T6 construct: gene PIK3CD; Km ATP
Experimental: as §1

EGFR = EGFR (Homo sapiens, UniProt P00533); assay: biochemical; set-up: Km ATP; Purified kinase inhibition, Z'-LYTE (HER, mTOR, DNA-PK) or Adapta (PI3K), ATP at Km apparent
Experimental: as §1

PI3Kγ [2] = target: T1, PI3Kγ; assay: biochemical kinase assay at ATP Km apparent; set-up: gene PIK3CG

Chain of EGFR (P00533 whole entry): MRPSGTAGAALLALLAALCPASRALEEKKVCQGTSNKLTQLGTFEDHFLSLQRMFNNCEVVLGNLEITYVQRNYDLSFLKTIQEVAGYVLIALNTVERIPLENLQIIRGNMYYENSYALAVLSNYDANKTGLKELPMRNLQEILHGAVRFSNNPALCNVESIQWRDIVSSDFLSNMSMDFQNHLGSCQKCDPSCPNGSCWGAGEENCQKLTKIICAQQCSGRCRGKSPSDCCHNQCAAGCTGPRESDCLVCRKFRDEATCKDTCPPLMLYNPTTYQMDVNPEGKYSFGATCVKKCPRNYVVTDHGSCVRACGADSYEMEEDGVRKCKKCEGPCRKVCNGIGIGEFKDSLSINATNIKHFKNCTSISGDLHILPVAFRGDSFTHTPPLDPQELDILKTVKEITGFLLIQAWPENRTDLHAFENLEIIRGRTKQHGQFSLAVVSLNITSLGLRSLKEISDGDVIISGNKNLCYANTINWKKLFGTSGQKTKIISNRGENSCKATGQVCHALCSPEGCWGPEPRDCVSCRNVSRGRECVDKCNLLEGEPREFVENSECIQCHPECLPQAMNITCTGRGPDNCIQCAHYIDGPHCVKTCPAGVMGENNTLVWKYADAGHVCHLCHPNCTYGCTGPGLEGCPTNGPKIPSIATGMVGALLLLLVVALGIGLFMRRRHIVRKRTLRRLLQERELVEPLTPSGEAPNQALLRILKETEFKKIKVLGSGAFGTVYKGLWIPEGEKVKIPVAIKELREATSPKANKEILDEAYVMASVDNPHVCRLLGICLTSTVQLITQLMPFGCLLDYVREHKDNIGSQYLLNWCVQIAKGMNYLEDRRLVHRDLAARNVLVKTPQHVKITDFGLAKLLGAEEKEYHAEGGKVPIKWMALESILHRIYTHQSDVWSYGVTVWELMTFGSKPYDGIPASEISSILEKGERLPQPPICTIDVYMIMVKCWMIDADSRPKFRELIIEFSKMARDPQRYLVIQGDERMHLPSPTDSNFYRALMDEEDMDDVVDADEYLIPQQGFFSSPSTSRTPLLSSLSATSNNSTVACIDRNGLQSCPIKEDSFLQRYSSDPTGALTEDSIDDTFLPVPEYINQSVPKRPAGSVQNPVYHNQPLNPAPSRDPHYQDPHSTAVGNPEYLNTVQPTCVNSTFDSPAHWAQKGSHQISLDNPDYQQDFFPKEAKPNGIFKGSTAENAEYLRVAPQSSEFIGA
T4 sequence (P04626 whole entry): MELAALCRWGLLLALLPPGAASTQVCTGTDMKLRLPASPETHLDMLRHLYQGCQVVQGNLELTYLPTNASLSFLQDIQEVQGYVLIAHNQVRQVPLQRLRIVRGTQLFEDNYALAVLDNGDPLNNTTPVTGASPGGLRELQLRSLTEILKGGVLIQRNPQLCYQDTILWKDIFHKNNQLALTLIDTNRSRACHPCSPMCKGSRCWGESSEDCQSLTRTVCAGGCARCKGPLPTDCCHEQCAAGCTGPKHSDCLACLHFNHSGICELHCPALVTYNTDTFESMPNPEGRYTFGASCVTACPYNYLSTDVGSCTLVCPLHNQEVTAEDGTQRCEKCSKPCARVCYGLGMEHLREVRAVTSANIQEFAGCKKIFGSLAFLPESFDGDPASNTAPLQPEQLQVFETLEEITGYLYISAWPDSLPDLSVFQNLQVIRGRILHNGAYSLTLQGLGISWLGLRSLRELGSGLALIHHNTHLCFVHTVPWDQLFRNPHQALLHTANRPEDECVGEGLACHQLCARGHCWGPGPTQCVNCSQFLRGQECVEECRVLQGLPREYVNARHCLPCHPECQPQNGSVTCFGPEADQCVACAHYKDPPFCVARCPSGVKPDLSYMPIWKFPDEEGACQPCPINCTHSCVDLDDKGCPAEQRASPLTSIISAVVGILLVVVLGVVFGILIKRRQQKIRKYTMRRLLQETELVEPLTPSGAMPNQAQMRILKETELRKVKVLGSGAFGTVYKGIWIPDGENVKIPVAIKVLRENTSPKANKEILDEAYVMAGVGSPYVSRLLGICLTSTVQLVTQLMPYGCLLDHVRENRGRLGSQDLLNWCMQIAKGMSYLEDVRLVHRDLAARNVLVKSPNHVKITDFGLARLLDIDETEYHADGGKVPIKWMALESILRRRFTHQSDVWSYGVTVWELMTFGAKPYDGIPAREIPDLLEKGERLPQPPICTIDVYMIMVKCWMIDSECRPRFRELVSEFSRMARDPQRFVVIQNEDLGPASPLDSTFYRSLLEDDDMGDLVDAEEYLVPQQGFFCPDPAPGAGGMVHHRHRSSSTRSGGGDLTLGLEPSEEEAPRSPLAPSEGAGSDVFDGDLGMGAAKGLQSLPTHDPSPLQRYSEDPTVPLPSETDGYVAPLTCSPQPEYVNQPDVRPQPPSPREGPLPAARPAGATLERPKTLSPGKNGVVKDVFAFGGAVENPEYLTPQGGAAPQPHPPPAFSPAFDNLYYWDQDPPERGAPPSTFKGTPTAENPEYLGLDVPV
T3 sequence (Q15303 whole entry): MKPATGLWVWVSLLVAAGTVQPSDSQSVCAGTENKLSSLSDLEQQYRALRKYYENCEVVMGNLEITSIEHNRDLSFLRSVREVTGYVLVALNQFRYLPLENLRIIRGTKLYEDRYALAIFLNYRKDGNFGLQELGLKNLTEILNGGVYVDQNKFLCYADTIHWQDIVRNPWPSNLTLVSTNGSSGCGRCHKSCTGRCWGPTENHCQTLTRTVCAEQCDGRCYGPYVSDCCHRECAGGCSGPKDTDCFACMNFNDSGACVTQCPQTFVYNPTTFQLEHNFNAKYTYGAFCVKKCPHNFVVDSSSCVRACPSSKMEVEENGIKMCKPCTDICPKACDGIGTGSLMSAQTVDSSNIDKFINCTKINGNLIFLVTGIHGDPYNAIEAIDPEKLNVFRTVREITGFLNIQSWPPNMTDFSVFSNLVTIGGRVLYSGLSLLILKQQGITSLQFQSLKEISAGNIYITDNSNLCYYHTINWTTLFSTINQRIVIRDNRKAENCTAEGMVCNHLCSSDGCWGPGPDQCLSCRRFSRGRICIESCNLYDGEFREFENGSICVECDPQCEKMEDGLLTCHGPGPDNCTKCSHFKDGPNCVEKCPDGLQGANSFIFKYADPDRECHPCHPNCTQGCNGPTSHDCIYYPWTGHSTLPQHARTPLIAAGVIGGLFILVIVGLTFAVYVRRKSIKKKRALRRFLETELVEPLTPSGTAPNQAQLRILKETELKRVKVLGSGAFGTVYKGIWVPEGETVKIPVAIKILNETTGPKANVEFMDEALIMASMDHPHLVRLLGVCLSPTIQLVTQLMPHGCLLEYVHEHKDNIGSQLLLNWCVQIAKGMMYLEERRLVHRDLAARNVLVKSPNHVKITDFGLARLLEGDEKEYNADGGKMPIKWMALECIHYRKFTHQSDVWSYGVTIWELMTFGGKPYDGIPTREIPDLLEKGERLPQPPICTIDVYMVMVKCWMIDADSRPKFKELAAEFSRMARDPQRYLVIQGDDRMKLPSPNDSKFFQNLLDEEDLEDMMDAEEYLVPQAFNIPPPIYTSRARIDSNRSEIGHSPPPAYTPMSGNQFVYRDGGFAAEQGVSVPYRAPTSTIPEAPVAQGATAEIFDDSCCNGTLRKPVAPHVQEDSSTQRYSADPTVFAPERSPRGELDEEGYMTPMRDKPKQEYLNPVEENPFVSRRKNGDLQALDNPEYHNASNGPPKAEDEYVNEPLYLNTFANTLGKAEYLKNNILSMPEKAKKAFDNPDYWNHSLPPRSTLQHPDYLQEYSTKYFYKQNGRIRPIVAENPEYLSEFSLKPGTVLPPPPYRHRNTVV
T1 sequence (P48736 whole entry): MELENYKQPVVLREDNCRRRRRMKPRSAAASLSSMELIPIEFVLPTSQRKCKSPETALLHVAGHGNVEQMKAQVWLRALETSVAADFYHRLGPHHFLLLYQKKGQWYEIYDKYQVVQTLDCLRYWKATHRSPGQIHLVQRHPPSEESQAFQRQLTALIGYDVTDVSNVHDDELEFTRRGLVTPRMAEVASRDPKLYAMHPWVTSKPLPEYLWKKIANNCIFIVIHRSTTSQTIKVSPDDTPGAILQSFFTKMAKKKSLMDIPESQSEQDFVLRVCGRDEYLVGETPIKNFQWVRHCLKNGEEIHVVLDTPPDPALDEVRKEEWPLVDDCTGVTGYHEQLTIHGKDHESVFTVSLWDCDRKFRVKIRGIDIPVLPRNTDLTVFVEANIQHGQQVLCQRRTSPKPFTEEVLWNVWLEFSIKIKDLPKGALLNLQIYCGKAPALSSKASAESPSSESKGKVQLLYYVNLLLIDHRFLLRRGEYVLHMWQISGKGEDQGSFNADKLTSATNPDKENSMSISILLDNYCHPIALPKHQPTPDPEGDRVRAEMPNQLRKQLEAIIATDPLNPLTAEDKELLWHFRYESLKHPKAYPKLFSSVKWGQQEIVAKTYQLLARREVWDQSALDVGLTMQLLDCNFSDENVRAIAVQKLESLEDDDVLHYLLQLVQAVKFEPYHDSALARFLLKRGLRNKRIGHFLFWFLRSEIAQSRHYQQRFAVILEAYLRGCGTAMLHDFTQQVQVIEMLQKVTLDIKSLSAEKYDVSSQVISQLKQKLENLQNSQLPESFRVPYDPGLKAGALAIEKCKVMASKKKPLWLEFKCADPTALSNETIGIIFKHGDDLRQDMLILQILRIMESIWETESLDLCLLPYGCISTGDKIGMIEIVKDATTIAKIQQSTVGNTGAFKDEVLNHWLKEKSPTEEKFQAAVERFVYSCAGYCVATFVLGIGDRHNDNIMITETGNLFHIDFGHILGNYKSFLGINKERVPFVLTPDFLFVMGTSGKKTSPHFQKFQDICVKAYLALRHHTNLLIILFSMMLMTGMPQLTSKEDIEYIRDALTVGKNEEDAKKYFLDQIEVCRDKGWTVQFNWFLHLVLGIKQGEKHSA

SMILES	pIC50 (PI3Kα)	pIC50 (PI3Kγ [1])	pIC50 (mTOR)	pIC50 (HER4)	pIC50 (HER2)	pIC50 (PI3Kβ)	pIC50 (PI3Kδ)	pIC50 (EGFR)	pIC50 (PI3Kγ [2])
CCN1CCN(Cc2ccc(-c3cc4c(N[C@H](C)c5ccccc5)ncnc4[nH]3)cc2)CC1 [NVP-AEE788]	< 5.00	< 5.00	< 5.00	6.66	7.58	< 5.00	< 5.00		
COc1ncc(-c2ccc3nccc(-c4ccnnc4)c3c2)cc1NS(=O)(=O)c1ccc(F)cc1F [Omipalisib]				< 5.00	< 5.00			< 5.00	9.21
Cc1nc(NC(=O)N2CCC[C@H]2C(N)=O)sc1-c1ccnc(C(C)(C)C(F)(F)F)c1 [Alpelisib]			5.53	< 5.00	< 5.00			< 5.00	
COc1c(OCCCN2CCOCC2)ccc2c1N=C(NC(=O)c1cnc(N)nc1)N1CCN=C21 [Copanlisib]			7.73	< 5.00	< 5.00			< 5.00	
